Measurements reported in article PMC2074590 (British Journal of Cancer, 1996).
Entries after “also recorded” stand apart in the source; their conditions may differ.

Assays:
[1] = Body weight at monthly review; assay type: in vivo, human
Protocol: Bridsh Journal of Cancer (1996) 74, 300-308 ? […] The agent was administered as a monthly depot intramuscular injection. […] The study was approved by the ethics committees of each clinical centre. Patients were eligible for the study if they were post- menopausal and age less than 81 years, with histologically verified breast cancer. […] Patients were excluded if they had serious intercurrent disease, a WHO performance status of greater than 2, and a life expectancy of less than 3 months or had received previous cytotoxic chemotherapy for advanced breast cancer. […] Patients 5-19 received 250 mg month-1 i.m. from the outset. […] Tumour response to therapy was evaluated according to UICC criteria (Hayward et al., 1977). To qualify for the 'no change' category, tumour growth had to stabilise for more than 6 months (Howell et al., 1988; Robertson et al., 1989). Body weight was recorded at each monthly review in the majority of patients. […] The procedure was applied after solid base clean up of a diethyl ether/hexane extract of serum. The study limit of quantification was 0.68 ng ml-'. […] Gonadotrophins follicle-stimulating hormone and lutenising hormone (FSH and LH) and SHBG were measured by RIA in the Regional Radioimmunoassay Laboratory of the University Hospital of South Manchester. Prolactin was measured by immunoradiometric assay using reagents supplied by Netria. Total cholesterol levels were determined enzymatically using a commercially available reagent (Diamed, Switzerland). Triglyceride levels were determined by the glyceryl phosphate oxidase-peroxidase-antiperox- idase method using a commercially available kit (Boehringer Mannheim, Germany). High-density lipoprotein (HDL) cholesterol levels were measured after pretreatment of the serum samples with buffered magnesium phosphotungstate, which selectively precipitates low-density lipoprotein (LDL) cholesterol, very low-density lipoprotein (VLDL) cholesterol and chylomicrons, leaving HDL cholesterol in the super- natant. Serum levels of LDL cholesterol were calculated using the Friedewald equation (Friedewald et al., 1972). […]

[2] = Side-effects, local and systemic drug tolerability; assay type: in vivo, human
Protocol: (§1) Bridsh Journal of Cancer (1996) 74, 300-308 ? […] The agent was administered as a monthly depot intramuscular injection. […] The study was approved by the ethics committees of each clinical centre. Patients were eligible for the study if they were post- menopausal and age less than 81 years, with histologically verified breast cancer. […] Patients were excluded if they had serious intercurrent disease, a WHO performance status of greater than 2, and a life expectancy of less than 3 months or had received previous cytotoxic chemotherapy for advanced breast cancer. […] Patients 5-19 received 250 mg month-1 i.m. from the outset. […] Tumour response to therapy was evaluated according to UICC criteria (Hayward et al., 1977). To qualify for the 'no change' category, tumour growth had to stabilise for more than 6 months (Howell et al., 1988; Robertson et al., 1989). Body weight was recorded at each monthly review in the majority of patients. […] The procedure was applied after solid base clean up of a diethyl ether/hexane extract of serum. The study limit of quantification was 0.68 ng ml-'. […] Gonadotrophins follicle-stimulating hormone and lutenising hormone (FSH and LH) and SHBG were measured by RIA in the Regional Radioimmunoassay Laboratory of the University Hospital of South Manchester. Prolactin was measured by immunoradiometric assay using reagents supplied by Netria. Total cholesterol levels were determined enzymatically using a commercially available reagent (Diamed, Switzerland). Triglyceride levels were determined by the glyceryl phosphate oxidase-peroxidase-antiperox- idase method using a commercially available kit (Boehringer Mannheim, Germany). High-density lipoprotein (HDL) cholesterol levels were measured after pretreatment of the serum samples with buffered magnesium phosphotungstate, which selectively precipitates low-density lipoprotein (LDL) cholesterol, very low-density lipoprotein (VLDL) cholesterol and chylomicrons, leaving HDL cholesterol in the super- natant. Serum levels of LDL cholesterol were calculated using the Friedewald equation (Friedewald et al., 1972). Endometrial assessment Endometrial thickness was measured in transverse section by transabdominal ultrasound using a Siemens Sonoline SL2 with a 3.5 MHz sector probe. Baseline and repeat scans at 3-6 monthly intervals were performed in five patients. […] Pharmacokinectic data were analysed using para- metric statistics. Data relating to body weight, serum gonadotrophin, SHBG and lipid levels were analysed using non-parametric statistics. The null hypothesis was rejected at a probability level of P<0.05. […] However, samples were not available between day 2 and day 8.

[3] = test system: advanced breast cancer resistant to tamoxifen; test: Tumour response to therapy, UICC criteria; assay type: in vivo, human; set-up: key to Response to 182780: PD: progressive disease; NC: no change; PR: partial response
Protocol: as §1

[4] = test system: serum FSH, LH, prolactin, SHBG; test: Serum FSH, LH, prolactin and SHBG before and during treatment; assay type: in vivo, human
Protocol: as §1

breast cancer cells = test system: breast cancer cells; set-up: method as in Wakeling and Bowler, 1987, 1988; settings: ref Wakeling and Bowler, 1987, 1988; cited from earlier work

With C[C@]12CC[C@@H]3c4ccc(O)cc4C[C@@H](CCCCCCCCC[S+]([O-])CCCC(F)(F)C(F)(F)F)[C@H]3[C@@H]1CC[C@@H]2O (some centres unmarked) [ICI 182780, 7a-[9(4,4,5,5,pentafluoropentyl-sulphinyl)nonyl]oestra-1 ,3,5,(10)-triene-3,17,B-diol] the “Mean body weight (s.d.)” value ([1]; after 10 months, n = 9) was 64.5 ± 17.2 kg, the “Mean body weight (s.d.)” value ([1]; after 16 months, n=9) was 64.2 ± 18.3 kg and the “Change in body weight during treatment” value ([1]; baseline mean 63.8 kg (n=13)) was “no significant changes”. The “Serious drug-related adverse events” value ([2]; 19 patients) was “No serious drug-related adverse events”, the “Vaginal dryness or altered libido” value ([2]; direct questioning at each monthly attendance) was “None of the patients reported” and the Frequency of side-effects ([2]; in vivo) was “infrequent”. The “Full blood count and biochemical profile” value ([2]; in vivo) was “No clinically significant changes”, the “Hot flushes and night sweats” value ([2]; in vivo) was “not induced; also recorded: not associated with any alteration” and the “Injection-site events: erythema” value ([2]; in vivo) was “a third patient had local erythema at the injection site on one occasion”. The “Local tolerance at the site of injection” value ([2]; long-acting formulation, 5 ml i.m.) was “well tolerated locally”, the “Patients reporting minor systemic adverse events” value ([2]; of 19 patients) was “two” and the “Injection-site events: bruising, tenderness” value ([2]; one occasion each) was “One patient developed bruising over the buttock and a second developed tenderness at the injection site”. The “Median duration of response” value ([3]; 13 responding patients) was 25 months, the Partial response rate ([3]; 19 patients) was 37% and the Progression rate ([3]; 19 patients) was 31%. The “Patients responding (partial response + no change)” value ([3]; 19 patients, after progression on tamoxifen) was 69%, the “No change response rate” value ([3]; 19 patients, stabilisation for more than 6 months) was 32% and the Duration of response ([3]; NC patient with 61 months adjuvant tamoxifen (A61, = patient 15), from Table III) was no less than 23 months. The “Patients still in remission and continuing treatment” value ([3]; after 30-33 months) was “five”, the “Association between duration of treatment with tamoxifen and subsequent response” value ([3]; in vivo) was “no association” and the “Responses in women who progressed while receiving tamoxifen for advanced breast cancer” value ([3]; in vivo) was “six of the nine”. The “Responses in women who relapsed after tamoxifen as adjuvant therapy” value ([3]; in vivo) was “seven of the ten”, the “Number of patients with progression” value ([3]; of 19 patients) was 6 patients and the “Response to 182780” value ([3]; patient 1 (donor kappa)) was “PD”. The Duration of response ([3]; patient 1, PD) was less than 2 months, the “Response to 182780” value ([3]; patient 2 (donor eta)) was “NC” and the Duration of response ([3]; patient 2, NC) was 29 months. For the same molecule, the “Response to 182780” value ([3]; patient 3 (donor mu)) was “PR”, the Duration of response ([3]; patient 3, PR) was 12 months and the “Response to 182780” value ([3]; patient 4 (donor lambda)) was “PD”. The Duration of response ([3]; patient 4, PD) was less than 2 months, the “Response to 182780” value ([3]; patient 5 (donor sigma)) was “PR” and the Duration of response ([3]; patient 5, PR) was 8 months. The “Response to 182780” value ([3]; patient 6 (donor delta)) was “PR”, the Duration of response ([3]; patient 6, PR) was 3 months and the “Response to 182780” value ([3]; patient 7 (donor gamma)) was “PD”. For the same molecule, the Duration of response ([3]; patient 7, PD) was less than 2 months, the “Response to 182780” value ([3]; patient 8 (donor theta)) was “PR” and the Duration of response ([3]; patient 8, PR) was 25 months. The “Response to 182780” value ([3]; patient 9 (NT)) was “PD”, the Duration of response ([3]; patient 9, PD) was less than 2 months and the “Response to 182780” value ([3]; patient 10 (donor iota)) was “PR”. For the same molecule, the Duration of response ([3]; patient 10, PR, + = continuing) was no less than 33 months, the “Response to 182780” value ([3]; patient 11 (donor epsilon)) was “PD” and the Duration of response ([3]; patient 11, PD) was less than 2 months. For the same molecule, the “Response to 182780” value ([3]; patient 12 (donor nu)) was “NC”, the Duration of response ([3]; patient 12, NC, + = continuing) was no less than 33 months and the “Response to 182780” value ([3]; patient 13 (donor tau)) was “PD”. The Duration of response ([3]; patient 13, PD) was less than 2 months, the “Response to 182780” value ([3]; patient 14 (donor xi)) was “PR” and the Duration of response ([3]; patient 14, PR, + = continuing) was no less than 32 months. The “Response to 182780” value ([3]; patient 15 (donor omicron)) was “NC”, the “Response to 182780” value ([3]; patient 16 (donor rho)) was “PR” and the Duration of response ([3]; patient 16, PR) was 25 months. The “Response to 182780” value ([3]; patient 17 (donor zeta)) was “NC”, the Duration of response ([3]; patient 17, NC) was 9 months and the “Response to 182780” value ([3]; patient 18 (donor beta)) was “NC”. The Duration of response ([3]; patient 18, NC, + = continuing) was no less than 30 months, the “Response to 182780” value ([3]; patient 19 (donor pi)) was “NC” and the Duration of response ([3]; patient 19, NC, + = continuing) was no less than 30 months. For the same molecule, the “Time to objective disease progression in unresponsive patients” value ([3]; six patients unresponsive de novo) was no more than 2 months, the Serum SHBG, median level ([4]; after 8 months of treatment, median pretreatment 100, P=NS) was 55 nM and the “Serum LH, median post-treatment value” ([4]; first 3 months of administration, median pre-treatment 26, P<0.005) was 42 IU 1-1. The “Serum FSH, median post-treatment value” ([4]; first 3 months of administration, median pre-treatment 26, P<0.05) was 52 IU l-1, the “Change in serum SHBG” value ([4]; in vivo) was “no significant changes; also recorded: overall trend to decrease” and the “Change in serum gonadotrophin levels after the first 3 months” value ([4]; in vivo) was “no further significant overall changes”. The “Change in serum prolactin” value ([4]; throughout the treatment period) was “no significant changes; also recorded: did not change significantly” and the “Potency as inhibitor of cell growth in vitro relative to tamoxifen” value (breast cancer cells) was “up to two orders of magnitude more potent than tamoxifen”.
